Legend:
Assay type in all cases: in vivo
enterocytes = assay: Rat ischemia-reperfusion injury: enterocyte apoptosis (TUNEL assay); conditions: IR rats, oral insulin; IR-untreated 2.8±0.7; p<0.05
Protocol: (§1) Surgical procedure: Following overnight fasting, the animals were anesthetized with intraperitoneal injection of pentobarbital (IP 40 mg/kg). Using sterile techniques, the abdomen was opened using a midline incision. […] IR underwent laparotomy, mobilization and occlusion of SMA and portal vein by vascular clamp for 30 minutes followed by a reperfusion period of 24 hours. Before closure of the abdomen, the rats were resuscitated with a 3-ml intraperitoneal injection of warm 0.9% saline. For all operations, the abdominal cavity was closed in two layers with a running suture of Dexon “S” Polyglycolic Acid 3/0. Rats were allowed free access to water and food. Twenty-four hours later, the rats were anesthetized with intraperitoneal pentobarbital (75 mg/kg) and were sacrificed by open pneumothorax.
Apoptotic cells were identified using the terminal deoxynucleotidyl transferase-mediated, dUTP nick end-labeling (TUNEL) assay. Terminal deoxynucleotidyl transferase (TdT) (Boehringer Mannheim GmbH, Mannheim, Germany) was used to label DNA strand breaks. Incorporation of fluorescein was detected by anti-fluorescein antibody Fab fragments from sheep, conjugated with horse-radish peroxidase (POD) (Boehringer Mannheim GmbH, Mannheim, Germany). Briefly, five-micrometer paraffin-embedded sections were dewaxed and rehydrated with xylene and graded alcohol. […]

[1] = tested on: ischemia-reperfusion (IR) injury in rats; assay: Rat ischemia-reperfusion injury: intestinal histology (villus height, crypt depth, Park's injury grade)
Protocol: as §1
Intestinal Histology: Intestinal samples from the proximal jejunum and distal ileum were fixed in 10% formalin, dehydrated in progressive concentrations of ethanol, cleared in xylene, and embedded in paraffin wax. Deparaffinized […] sections were stained with haematoxylin and eosin. Ten villi and crypts were selected for the microscopic analysis, using a 10×4 magnifying lens. Histological images were loaded on a 760×570 pixels resolution buffer using a computerized image analysis system composed of a trichip RGB video-camera (Sony, Japan), installed on a light microscope (Zeiss, Germany) and attached to an IBM compatible personal computer (Pentium III, MMX, 450 mhz, 125 MB RAM), equipped with a frame grabber. […] The villus height and crypt depth were measured using the Image Pro Plus 4 image analysis software (Media Cybernetics, Baltimore, Md., USA).
The degree of intestinal tissue injury was evaluated on a grading scale from 0 to 8 as described previously by Park et al., [Surgery. 107: 574, 1990]: 0—normal mucosa, 1—subepithelial space at villus tip, 2—more extended subepithelial space, 3—epithelial lifting along villus sides, 4—denuded villi, 5—loss of villus tissue, 6—crypt layer infarction, 7—transmucosal infarction, 8—transmural infarction.

[2] = tested on: rat model of short bowel syndrome; assay: Rat model of SBS: histology, villus height and crypt depth
Protocol: Animal treatment: Animals were obtained from the Rappaport Faculty of Medicine (Technion, Haifa, Israel). Male rats weighing 240-260 g were kept in individual stainless steel cages at constant temperature and humidity, and a 12-hour light-dark cycle was maintained. Rats were fasted 12 hours prior to the experiment with free access to water. Animals underwent one of two surgical procedures: bowel transection and re-anastomosis or 75% bowel resection and anastomosis. General anesthesia was induced with Pentobarbital (IP 40 mg/kg). Using sterile techniques, the abdomen was opened using a midline incision. In sham rats, simple bowel transection and end-to-end re-anastomosis was performed 15 cm proximal to ileo-cecal junction. In SBS animals, small bowel was resected from a point 5 cm distal to the ligament of Treitz to a point 10 cm proximal to the ileo-cecal junction. Bowel continuity was restored by end-to-end anastomosis using 5-0 Vicryl interrupted sutures. For all operations, the abdominal cavity was closed in two layers with a running suture of 3-0 Dexon. Prior to closure of the abdomen, the rats were resuscitated with a 3 ml intraperitoneal injection of warm normal saline. Rats were fasted for 24 hours but were allowed free access to water.
Group C—SBS-Insulin (SBS-INS, n=13) rats underwent bowel resection and were fed regular chow diet and water containing insulin (ACTRAPID insulin, NOVO NORDISK, Denmark) at concentration of 1 u/ml. Food and fluid intake of animals were monitored as well as weight for a period of 14 days following treatment after which the animals were sacrificed following intraperitoneal injection of pentobarbital (75 mg/kg).
Segments of small bowel were fixed for 24 hours in 10% formalin and processed into standard paraffin blocks. Five-micron tissue slices stained with hematoxylin-eosin. The sections were studied microscopically using a micrometer eyepiece. Histological images were loaded on a 760×570 pixels resolution buffer using a computerized image analysis system composed of a trichip RGB video-camera (Sony, Japan), installed on a light microscope (Zeiss, Germany) and attached to an IBM compatible personal computer (Pentium III, MMX, 450 mhz, 125 MB RAM), equipped with a frame grabber. […] The villus height and crypt depth were measured using the Image Pro Plus 4 image analysis software (Media Cybernetics, Baltimore, Md., USA). Ten villi and crypts in each section were measured and the mean reading was recorded in microns.

[3] = SBS-insulin rats vs SBS-untreated, 14 days, p<0.05

insulin
apoptotic index in ileum (enterocytes): 1.2±0.4 TUNEL positive cells/10 villi
intestinal injury grade (Park's criteria) in jejunum and ileum ([1]; IR rats, oral insulin, vs IR-animals): did not significantly change
ileal crypt depth ([1]; insulin treated IR rats, IR 131±7, p<0.05): 219±11 μm
jejunal crypt depth ([1]; insulin treated IR rats, IR 167±8, p<0.05): 264±13 μm
ileal villus height ([1]; insulin treated IR rats, IR 225±25, p<0.05): 421±40 μm
jejunal villus height ([1]; insulin treated IR rats, IR 341±29, p<0.05): 622±91 μm
villi height in jejunum ([2]; SBS rats, oral insulin, vs SBS-untreated): not associated with an increase
increase in ileal crypt depth [2, 3]: 40%
increase in ileal villus height [2, 3]: 15%
increase in jejunal crypt depth [2, 3]: 15%

Source: patent US8026211B2, “Methods and formulations for increasing intestinal function” (Technion Research & Development Foundation Ltd., priority 2004, dated 2011)
